Source: patent US8053573B2, “Monomer 5, 6-diphenyl-1.2.4-traizinic derivatives and the use thereof” (Pierre Fabre Dermo-Cosmetique, priority 2004, dated 2011)
Several values for one entry are separate records, joined by “and”; a condition that tells them apart may be missing. Equal values may be shown once.

Tests used:
Type in all cases: physicochemical
[1] = Spectral distribution in UVA and UVB (290-400 nm); settings: range from 290 nm to 400 nm
From the text: The products tested are classified according to spectral distribution in UVA and UVB in a range from 290 nm to 400 nm.
It is possible to differentiate them according to their spectral distribution:
Products with a narrow spectrum: • Products absorbing in the range between 280 nm and 320 nm (UVB) • Products absorbing in the range between 320 nm and 400 nm (UVA) Products with a broad spectrum: • Products absorbing in UVB (280-320 nm) and UVA-II […] • Products covering UVB and UVA (280-400 nm).

[2] = Solubility study in solvents or excipients used in cosmetics
[3] = In vitro SPF in a primary formula (gel on PMMA plates); settings: PMMA plate, 1.2 mg/cm^2
Procedure: PMMA (polymethyl methacrylate) plates (50×50 mm, supplied by Europlast) were used.
The dose applied in the in vivo solar product evaluation protocols (2 mg/cm^2) is too high for the type of substrate employed here.
Gels were formulated from the triazines that are objects of this invention and certain reference filters. The molecules are solubilized in Transcutol® CG in a water bath. The solution is then placed under magnetic stirring and a gelling agent, Klucel HF (hydroxypropyl cellulose), is added at a concentration of 2%. Stirring is maintained for 30 minutes. SPF is measured using a Labsphere UV-1000 S Transmittance Analyzer spectrophotometer (Labsphere, North Sutton, N.H., USA).

[4] = In vitro SPF in a chemical solvent (Diffey and Robson); settings: ethyl acetate solution, 10 μg/ml, transmittance 290-400 nm
Procedure: The in vitro methods of determining the protective effectiveness of sun products consist of measuring by transmission spectrophotometry the absorption spectrum of the filter in solution or of the product applied on a substrate with the aim of simulating the surface of the skin. The effectiveness against UVB and/or UVA rays, or the effect on the cutaneous response, are then determined by calculation, taking into account or not the UV radiation action spectrum for the damage considered.
The Sayre/Agin and Diffey/Robson method, used since the 1990s, involves a comparative measurement, with the aid of an integrating-sphere spectroradiometer, of the transition from 290 nm to 400 nm in 5 nm steps, the sample being subjected to UV radiation from a stable known source covering the whole of the UV spectrum (unfiltered xenon).
Diffey and Robson evaluate the erythemal response by the following calculation:
[formula] E(λ)=spectral irradiation in W(m^−2) (nm^−1) at 40° N sun at 20° zenith angle ε=erythematous capacity
The Diffey and Robson formula makes it possible to determine SPF from the measurement of transmittance between 290 nm and 400 nm. Transmittance is measured in solution in ethyl acetate at a concentration of 10 μg/ml using a UV-visible spectrophotometer (Varian CARY 50 Scan).

[5] = Spectral characteristics: molar extinction coefficient and specific absorbance; settings: ethyl acetate, 10 μg/ml; for Maximum specific absorbance UVB / Maximum specific absorbance UVA: A1cm^1%
From the text: The calculation of the molar extinction coefficient (ε) is made from the Beer-Lambert law:
[formula] Wherein: A=absorbance I0=intensity of the incident light I=intensity of the transmitted light ε=molar extinction (or molar absorbance) coefficient in M^−1 cm^−1 l=path length in cm c=concentration in mol/l
The molar extinction coefficient can be expressed with respect to a given mass of the product. It thus makes it possible to be able to compare the coefficients of extinction between products for the same given quantity. This quantity is 1% by weight. The molar extinction coefficient thus becomes the specific absorbance (A1cm^1%).
[formula] Wherein: A1cm^1%=specific absorbance ε=molar extinction coefficient M=molar mass
The spectral characteristics of the compounds in comparison with commercial filters at a concentration of 10 μg/ml are summarized in tables 2-1 and 2-2.
Procedure: The products are dissolved in ethyl acetate to a concentration of 10 μg/ml. The spectra are measured using a dual-beam spectrophotometer (Varian CARY 50 Scan) between 290 nm and 400 nm.

[6] = Photostability in solution in a chemical solvent (Suntest CPS+); settings: 25 μg deposited from methanol, absorbance vs non-irradiated control, in % (unit assumed); for Photostability at 10 MED mean: Suntest irradiation 10 MED; for Photostability at 20 MED mean: Suntest irradiation 20 MED
From the text: A Suntest CPS+ (Atlas, Linsengenicht/Altenhasslan, Germany) was used. The Suntest makes it possible to reproduce the solar spectrum and thus to carry out exposures inside at any time without weather constraints.
The radiance of the solar simulator was carefully measured with a spectroradiometer (MSS 2044, Bielefeld, Germany). UVB and UVA intensities were 0.49 mW/cm^2 and 6.32 mW/cm^2, respectively. The MED value defined by COLIPA is 5.6 J/cm^2 in total UV (22). The UV total (UVA+UVB) accounts for 14.8% of the energy delivered by the lamp (power 460 W/m^2). An irradiation dose equivalent to 1 MED corresponds to 37.83 J/cm^2 (in total spectrum) delivered by the lamp.
The Suntest test duration is calculated using the following formula: t=H/E with: […]
The solutions of the compounds are prepared at a concentration of 500 μg/ml in methanol. 50 μl (25 μg) of each solution are deposited in a crystallizer, then irradiated in the Suntest at 5, 10 and/or 20 MED. A non-irradiated control is prepared (deposit of 50 μl of solution and addition of 2.450 ml of methanol). The solvent evaporates during irradiation and the products are taken up in 2.5 ml of methanol. After irradiation, the absorbance of each solution is measured with the UV-visible spectrophotometer (Varian CARY 50 Scan).

[7] = Spectral characteristics: molar extinction coefficient and specific absorbance; settings: ethyl acetate, 10 μg/ml; for Maximum specific absorbance UVC: A1cm^1%
[8] = Finsol V NT ® (C12-C15 alkyl benzoate)
[9] = single filter 3% in Transcutol CG / Klucel HF gel

SMILES	Spectral distribution [1]	Solubility (%) [2, 8] [%]	Solubility (%) ([2]; PEG400 ® (polyethylene glycol))	SPF [3, 9]	SPF [4]	Maximum specific absorbance UVB [5]	Maximum molar extinction coefficient UVB [5] [M⁻¹ cm⁻¹]	Wavelength of maximum molar extinction coefficient UVB [5]	Wavelength of maximum specific absorbance UVB [5]	Photostability at 10 MED mean [6]	Photostability at 20 MED mean [6]	Maximum specific absorbance UVC [7]	Maximum molar extinction coefficient UVC [7]	Wavelength of maximum molar extinction coefficient UVC [7]	Wavelength of maximum specific absorbance UVC [7]	Maximum specific absorbance UVA [5]	Maximum molar extinction coefficient UVA [5] [M⁻¹ cm⁻¹]	Wavelength of maximum molar extinction coefficient UVA [5]	Wavelength of maximum specific absorbance UVA [5]	also measured
COc1ccc(-c2nnc(-c3ccc(O)cc3)nc2-c2ccc(OC)cc2)cc1 [JR65, 3-(4-hydroxyphenyl)-5,6-bis(4-methoxyphenyl)-1,2,4-triazine]	absorb in UVB	1	5	9.8 and 10.9	68.21	809	31100	at 315	at 315	96.91	85.5									Solubility (%) ([2]; Arlasolve DMI ® (dimethyl isosorbide)): 8%; Solubility (%) ([2]; Butylene glycol): 5%; Solubility (%) ([2]; Cetiol SN ® (decyl oleate)): 1%; Solubility (%) ([2]; Cetiol V ® (cetearyl isononanoate)): 2%; Solubility (%) ([2]; Hexylene glycol): 5%; Solubility (%) ([2]; Isopropyl adipate): 2%; Solubility (%) ([2]; Isopropyl myristate): 5%; Solubility (%) ([2]; Myritol 318 ® (caprylic/capric triglycerides)): 0.5%
COc1ccc(-c2nnc(N)nc2-c2ccc(OC)cc2)cc1 [JR77, 3-amino-5,6-bis(4-methoxyphenyl)-1,2,4-triazine]	absorb in UVB (280-320 nm) and UVA-II (280-340 nm)				47.16					73.03	61.14	631	19300 M⁻¹ cm⁻¹	at 280	at 280	249	7600	at 360	at 360	
CCCCCCCCCCCCOc1ccc(-c2nnc(-c3ccc(OC)cc3)c(-c3ccc(OC)cc3)n2)cc1 [JR173, 3-(4-dodecyloxyphenyl)-5,6-bis(4-methoxyphenyl)-1,2,4-triazine]	absorb in UVB	7	2		69.02	878 at	48600	at 305	305											
COc1ccc(C(=O)CC(=O)c2ccc(C(C)(C)C)cc2)cc1 [Parsol 1789 ®, reference compound]	only absorbs in UVA				51.1					57.04	6.26	278 at	8633 at M^−1 cm^−1	275	275	1100	34100	at 360	at 360	
CCCCC(CC)COC(=O)C=Cc1ccc(OC)cc1 (stereo not shown) [Parsol MCX ®, reference compound]					20.78	848	24600	at 310	at 310	33.38	11.63									SPF ([3]; single filter 5% in Transcutol CG / Klucel HF gel): 17.2
CCCCC(CC)COc1ccc(-c2nc(-c3ccc(OC)cc3)nc(-c3ccc(OCC(CC)CCCC)cc3O)n2)c(O)c1 (stereo not shown) [Tinosorb S ®, reference compound]	absorb in UVB and UVA			9.8	76.19	751	47150	at 310	at 310							789	49580	at 345	at 345	
